# In patent US6737383B1, “Herbicidal oxadiazolidines” (priority 1999, dated 2004):
# Key:
# velvetleaf = test: Test B pre/postemergence velvetleaf; assay type: in vivo, Abutilon theophrasti
# Procedure, shortened: (§1)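 Herbicidal effect was estimated by eye on a ten-point control scale after plants spent twelve to sixteen days in a greenhouse following soil or foliar treatment. Foliar sprays targeted plants at one to four leaves; all doses were formulated in a non-phytotoxic solvent with surfactant.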
# blackgrass = test: Test B pre/postemergence blackgrass; assay type: in vivo, Alopecurus myosuroides
# Procedure, shortened: as §1
# pigweed = test: Test B pre/postemergence pigweed; assay type: in vivo, Amaranthus retroflexus
# Procedure, shortened: as §1
# giant foxtail = test: Test B pre/postemergence giant foxtail; assay type: in vivo, Setaria faberii
# Procedure, shortened: as §1
# rape = test: Test B pre/postemergence rape; assay type: in vivo, Brassica napus
# Procedure, shortened: as §1
# duck salad = test: Test B flood test duck salad; assay type: in vivo, Heteranthera limosa
# Procedure, shortened: (§2)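 Read-out is a visual response score from 0 (no effect) to 10 (complete control), assigned by comparison with untreated controls. Treatment was applied at the 2-leaf stage, and plants stayed in the greenhouse for twelve to sixteen days before scoring.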
# cocklebur = test: Test B pre/postemergence cocklebur; assay type: in vivo, Xanthium strumarium
# Procedure, shortened: as §1
# sugar beet = test: Test B pre/postemergence sugar beet; assay type: in vivo, Beta vulgaris
# Procedure, shortened: as §1
# wild oat = test: Test B pre/postemergence wild oat; assay type: in vivo, Avena fatua
# Procedure, shortened: as §1
# crabgrass = test: Test B pre/postemergence crabgrass; assay type: in vivo, Digitaria sanguinalis
# Procedure, shortened: as §1
# smallflower flatsedge = test: Test B flood test smallflower flatsedge; assay type: in vivo, Cyperus difformis
# Procedure, shortened: as §2
# corn = test: Test B pre/postemergence corn; assay type: in vivo, Zea mays
# Procedure, shortened: as §1
# soybean = test: Test B pre/postemergence soybean; assay type: in vivo, Glycine max
# Procedure, shortened: as §1
# bedstraw = test: Test B pre/postemergence bedstraw; assay type: in vivo, Galium aparine; details: Preemergence; for Bedstraw plant response rating: scale 0 to 10, 0 is no effect, 10 is complete control
# Procedure, shortened: as §1
# surinam grass = test: Test B pre/postemergence surinam grass; assay type: in vivo, Brachiaria decumbens
# Procedure, shortened: as §1
# rice = test: Test B flood test rice; assay type: in vivo, Oryza sativa
# Procedure, shortened: as §2
# purple nutsedge = test: Test B pre/postemergence purple nutsedge; assay type: in vivo, Cyperus rotundus
# Procedure, shortened: as §1
# morningglory = test: Test B pre/postemergence morningglory; assay type: in vivo, Ipomoea hederacea
# Procedure, shortened: as §1
# wheat = test: Test B pre/postemergence wheat; assay type: in vivo, Triticum aestivum
# Procedure, shortened: as §1
# bamyardgrass = test: Test B flood test barnyardgrass; assay type: in vivo, Echinochloa crus-galli
# Procedure, shortened: as §2
# [1] = Postemergence, Rate 62 g/ha, scale of 0 to 10, 0 is no effect, 10 is complete control
# [2] = Postemergence, Rate 125 g/ha, scale 0 to 10, 0 is no effect, 10 is complete control
# [3] = Postemergence, Rate 500 g/ha, scale 0 to 10, 0 is no effect, 10 is complete control
# [4] = Preemergence, Rate 62 g/ha, scale of 0 to 10 where 0 is no effect and 10 is complete control
# [5] = Preemergence, Rate 125 g/ha, scale 0 to 10, 0 is no effect, 10 is complete control
# [6] = Preemergence, Rate 500 g/ha, scale of 0 to 10 where 0 is no effect and 10 is complete control
# [7] = Postemergence, Rate 250 g/ha, scale 0 to 10
# [8] = Preemergence, Rate 250 g/ha, scale 0 to 10, 0 is no effect, 10 is complete control
# [9] = Rate 62 g/ha, flood test species, Pre-emergence, visual evaluation after twelve to sixteen days
# [10] = Rate 125 g/ha, under heading Pre-emergence, flood test species, visual evaluation after twelve to sixteen days
# [11] = Rate 250 g/ha, Pre-emergence (flood test species), scale 0 to 10, 0 is no effect, 10 is complete control
# [12] = Rate 500 g/ha, Pre-emergence section of Table B, 0 to 10 scale (0 no effect, 10 complete control)
smiles,measurement,setting,value
CC(C)N(C(=O)n1oc(=O)n(CC2CC2)c1=O)c1ccc(F)cc1F [Compound 509],Velvetleaf plant response rating,velvetleaf; [1],2
same,Velvetleaf plant response rating,velvetleaf; [2],4
same,"Plant response rating, Velvetleaf",velvetleaf; [3],7
same,"Plant response rating, Velvetleaf",velvetleaf; [4],3
same,Velvetleaf plant response rating,velvetleaf; [5],6
same,Velvetleaf plant response rating,velvetleaf; [6],8
same,Blackgrass plant response rating,blackgrass; [1],2
same,Blackgrass plant response rating,blackgrass; [2],5
same,Blackgrass plant response rating,blackgrass; [7],6
same,"Plant response rating, Blackgrass",blackgrass; [3],9
same,"Plant response rating, Blackgrass",blackgrass; [4],5
same,Blackgrass plant response rating,blackgrass; [5],7
same,Blackgrass plant response rating,blackgrass; [8],8
same,Blackgrass plant response rating,blackgrass; [6],10
same,Redroot pigweed plant response rating,pigweed; [1],0
same,Redroot pigweed plant response rating,pigweed; [2],0
same,"Plant response rating, Redroot pigweed",pigweed; [3],5
same,"Plant response rating, Redroot pigweed",pigweed; [4],0
same,Redroot pigweed plant response rating,pigweed; [5],0
same,Redroot pigweed plant response rating,pigweed; [6],10
same,Giant foxtail plant response rating,giant foxtail; [1],3
same,Giant foxtail plant response rating,giant foxtail; [2],7
same,"Plant response rating, Giant foxtail",giant foxtail; [3],8
same,"Plant response rating, Giant foxtail",giant foxtail; [4],9
same,Giant foxtail plant response rating,giant foxtail; [5],9
same,Giant foxtail plant response rating,giant foxtail; [6],10
same,Rape plant response rating,rape; [1],0
same,Rape plant response rating,rape; [2],0
same,"Plant response rating, Rape",rape; [3],4
same,"Plant response rating, Rape",rape; [4],0
same,Rape plant response rating,rape; [5],0
same,Rape plant response rating,rape; [6],10
same,"Plant response rating, Ducksalad (0 to 10 scale, 0 is no effect, 10 is complete control)",duck salad; [9],0
same,"Ducksalad plant response rating (0 to 10 scale, 0 is no effect, 10 is complete control)",duck salad; [10],0
same,Ducksalad plant response rating,duck salad; [11],0
same,Ducksalad plant response rating,duck salad; [12],0
same,Cocklebur plant response rating,cocklebur; [1],0
same,Cocklebur plant response rating,cocklebur; [2],0
same,Cocklebur plant response rating,cocklebur; [7],0
same,"Plant response rating, Cocklebur",cocklebur; [3],4
same,"Plant response rating, Cocklebur",cocklebur; [4],0
same,Cocklebur plant response rating,cocklebur; [5],0
same,Cocklebur plant response rating,cocklebur; [8],0
same,Cocklebur plant response rating,cocklebur; [6],5
same,Sugarbeets plant response rating,sugar beet; [1],0
same,Sugarbeets plant response rating,sugar beet; [2],0
same,"Plant response rating, Sugarbeets",sugar beet; [3],7
same,"Plant response rating, Sugarbeets",sugar beet; [4],0
same,Sugarbeets plant response rating,sugar beet; [5],4
same,Sugarbeets plant response rating,sugar beet; [6],7
same,Wild oats plant response rating,wild oat; [1],0
same,Wild oats plant response rating,wild oat; [2],0
same,"Plant response rating, Wild oats",wild oat; [3],8
same,"Plant response rating, Wild oats",wild oat; [4],0
same,Wild oats plant response rating,wild oat; [5],2
same,Wild oats plant response rating,wild oat; [6],9
same,Crabgrass plant response rating,crabgrass; [1],3
same,Crabgrass plant response rating,crabgrass; [2],9
same,Crabgrass plant response rating,crabgrass; [7],9
same,"Plant response rating, Crabgrass",crabgrass; [3],9
same,"Plant response rating, Crabgrass",crabgrass; [4],3
same,Crabgrass plant response rating,crabgrass; [5],7
same,Crabgrass plant response rating,crabgrass; [6],10
same,"Plant response rating, S. Flatsedge (0 to 10 scale, 0 is no effect, 10 is complete control)",smallflower flatsedge; [9],0
same,"S. Flatsedge plant response rating (0 to 10 scale, 0 is no effect, 10 is complete control)",smallflower flatsedge; [10],0
same,S. Flatsedge plant response rating,smallflower flatsedge; [11],0
same,S. Flatsedge plant response rating,smallflower flatsedge; [12],0
same,Corn plant response rating,corn; [1],0
same,Corn plant response rating,corn; [2],0
same,Corn plant response rating,corn; [7],0
same,"Plant response rating, Corn",corn; [3],1
same,"Plant response rating, Corn",corn; [4],0
same,Corn plant response rating,corn; [5],0
same,Corn plant response rating,corn; [6],6
same,Soybean plant response rating,soybean; [1],1
same,Soybean plant response rating,soybean; [2],3
same,"Plant response rating, Soybean",soybean; [3],5
same,"Plant response rating, Soybean",soybean; [4],0
same,Soybean plant response rating,soybean; [5],0
same,"Plant response rating, Bedstraw","bedstraw; Rate 62 g/ha, scale of 0 to 10 where 0 is no effect and 10 is complete control",0
same,Bedstraw plant response rating,bedstraw; Rate 125 g/ha,0
same,Bedstraw plant response rating,bedstraw; Rate 250 g/ha,10
same,Bedstraw plant response rating,bedstraw; Rate 500 g/ha,9
same,B. signalgrass plant response rating,surinam grass; [1],0
same,B. signalgrass plant response rating,surinam grass; [2],0
same,B. signalgrass plant response rating,"surinam grass; Postemergence, Rate 250 g/ha, scale 0 to 10, 0 no effect, 10 complete control",2
same,"Plant response rating, B. signalgrass",surinam grass; [3],7
same,"Plant response rating, B. signalgrass",surinam grass; [4],2
same,B. signalgrass plant response rating,surinam grass; [5],3
same,B. signalgrass plant response rating,surinam grass; [8],8
same,B. signalgrass plant response rating,"surinam grass; Preemergence, Rate 500 g/ha, scale 0 to 10, 0 is no effect, 10 is complete control",9
same,"Plant response rating, Rice (0 to 10 scale, 0 is no effect, 10 is complete control)",rice; [9],0
same,"Rice plant response rating (0 to 10 scale, 0 is no effect, 10 is complete control)",rice; [10],0
same,Rice plant response rating,rice; [11],0
same,Rice plant response rating,rice; [12],0
same,Nutsedge plant response rating,purple nutsedge; [1],0
same,Nutsedge plant response rating,purple nutsedge; [2],0
same,"Plant response rating, Nutsedge",purple nutsedge; [4],0
same,Nutsedge plant response rating,purple nutsedge; [5],0
same,Nutsedge plant response rating,purple nutsedge; [6],0
same,"Plant response rating, Morningglory",morningglory; [3],5
same,"Plant response rating, Morningglory",morningglory; [4],0
same,Morningglory plant response rating,morningglory; [5],0
same,Morningglory plant response rating,morningglory; [6],3
same,Wheat plant response rating,wheat; [1],0
same,Wheat plant response rating,wheat; [2],0
same,"Plant response rating, Wheat",wheat; [3],2
same,"Plant response rating, Wheat",wheat; [4],0
same,Wheat plant response rating,wheat; [5],0
same,Wheat plant response rating,wheat; [6],7
same,"Plant response rating, Barnyardgrass (0 to 10 scale, 0 is no effect, 10 is complete control)",bamyardgrass; [9],0
same,"Barnyardgrass plant response rating (0 to 10 scale, 0 is no effect, 10 is complete control)",bamyardgrass; [10],0
same,Barnyardgrass plant response rating,bamyardgrass; [11],0
same,Barnyardgrass plant response rating,bamyardgrass; [12],0
